# Patent US10787423B2, “Piperazine and piperidine derivatives, their synthesis and use thereof in inhibiting VDAC oligomerization, apoptosis and mitochondria dysfunction” (THE NATIONAL INSTITUTE FOR BIOTECHNOLOGY IN THE NEGEV LTD., priority 2015, dated 2020)
# Like-named read-outs stand apart in the source and are kept apart here.
# What was measured:
# VDAC1 = VDAC1 (Homo sapiens, UniProt P21796); experiment: Selenite-induced VDAC1 oligomerization by EGS cross-linking and immunoblot in HEK-293 cells (Method B); type: cell-based; parameters: endogenous in cells; host or cells: HEK-293; conditions: HEK-293 cells, compound 2 h then selenite 15 μM 4 h; means±SD (n=3); read-out: VDAC1 oligomerization IC50
# Experimental: Appropriate test cells (2.5-3 mg/ml) in PBS, were harvested after the treatment and incubated with the cross-linking reagent EGS at a ratio of 100-300 μM for sample of 2-3 mg protein/ml concentration (pH 8.3) for 15 minutes. Protein concentration was determined according to Lowry assay. Samples (60-80 μg protein) were subjected to SDS-PAGE by a standard technique and immunoblotting was performed using anti-VDAC1 antibodies. Gels were electro-transferred onto nitrocellulose membranes for immuno-staining. The membranes were incubated with a blocking solution containing 5% non-fat dry milk and 0.1% Tween-20 in Tris-buffered saline, followed by incubation with monoclonal anti-VDAC1, anti-Cytochrome c, anti-AIF or anti-actin antibodies. Membranes were then incubated with HRP-conjugated anti-mouse or anti-rabbit IgG (1:10,000), serving as secondary antibodies. Antibody labeling was detected by chemiluminescence. To detect VDAC1 oligomers, membranes were treated with 0.1 M glycine, pH 2.0, prior to immunoblotting and washed several times with 0.1% Tween-20 in Tris-buffered saline. Quantitative analysis of immuno-reactive VDAC1 dimer, trimer and multimer bands was performed using FUSION-FX (Vilber Lourmat, France).
# The closed circle (●) indicates VBIT-4 (compound of Formula 1), the open circle (◯) indicates compound of Formula 10, and an open square (□) indicates VBIT-3 (compound of Formula 2).
# d. IC50 values of the tested compounds were derived from the obtained data. The results shown correspond to means±SD (n=3).
# SHSY5Y cells = experiment: 6-hydroxydopamine-induced cell toxicity, XTT cell viability; type: cell-based; conditions: for IC50: Homo sapiens, SH-SY5Y, 24 h, read-out: IC50 (cell viability protection)
# Experimental: SHSY5Y (obtained from ATCC) were grown at 37° C. under an atmosphere of 95% air and 5% CO2 in DMEM medium supplemented with 10% fetal bovine serum, 2 mM L-glutamine, 1000 U/ml penicillin, and 1 mg/ml streptomycin until 60-70% of confluence. Further, the cells were incubated with increasing concentrations of 6-hydroxydopamine. After 24 hours, and cells viability was assayed using the XTT (2,3-bis-(2-methoxy-4-nitro-5-sulfophenyl)-2H-tetrazolium-5-carboxanilide) method, according to the supplier instructions. […] The 50% decrease in cell survival was obtained at about 50 μM of 6-hydroxydopamine.
# Cell viability as assayed following 24 h incubation with different concentrations of 6-hydroxydopamine in the absence (closed squares (▪)) or in the presence of VBIT-12 (15 μM, closed circles (●)) is shown.
# Similarly, cells that were incubated with increasing concentrations of VBIT-12 in presence of either 30 or 50 μM of 6-hydroxydopamine that decreased cell viability by […], respectively, remained viable after 24 hours of the incubation. Cells viability is charted in FIG. 24C versus the concentrations of VBIT-12. Closed squares (▪) indicate control group without 6-hydroxydopamine, open circles (◯) indicates cells' viability when exposed to 30 μM of the 6-hydroxydopamine, and closed circles (●) indicate cells viability at 50 μM of the 6-hydroxydopamine.
# dopaminergic neurons = experiment: MPTP-induced Parkinson-like disease mouse model, brain immunofluorescence; type: in vivo, C57BL/6N male mice; conditions: MPTP 20 mg/kg IP 5 days; 20 mg/kg in drinking water from day 3
# Experimental: The Experimental protocols were approved by the Institutional Animal Care and Use Committee. Briefly, C57BL/6N male mice 3-months old were injected IP 3 times/week with vehicle (saline) as control. Parkinsonism was induced by repetitive intraperitoneal injection of 20 mg/kg 1-methyl-4-phenyl-1,2,3,6-tetrahydropyridine hydrochloride (MPTP), Sigma, Israel) in saline, for 5 consecutive days. Group 3 was injected with MPTP and at day 3 of MPTP treatment it was subjected to compound of Formula 3 (VBIT-12) 20 mg/kg in drinking water.
# Brains from the scarified mice were analyzed for the pathophysiological features of PD-like mouse models as induced by MPTP and the effect of VBIT-12 on the dopaminergic neurons (DN) was analyzed. Fixed brains were subjected to coronal sections (5 μm thickness) including the Substantia nigra pars compacta (SNc), ventral tegmental area (VTA) and Substantia nigra pars reticular (SNR) (see FIG. 25B) and used for immunofluorescence (IF) (FIG. 25C). Evaluation of dopaminergic neuron degeneration was monitored using anti-Tyrosine hydroxylase (TH) antibodies, which is expressed in dopaminergic neurons.
# This decrease was prevented by VBIT-12, as reflected by the increase of the number of cells stained with TH relative to the MPTP-treated group not subjected to VBIT-12.
# Sections were also subjected for staining with anti-VDAC1 antibodies (FIG. 25D). […]
# Chain of VDAC1 (P21796 whole entry): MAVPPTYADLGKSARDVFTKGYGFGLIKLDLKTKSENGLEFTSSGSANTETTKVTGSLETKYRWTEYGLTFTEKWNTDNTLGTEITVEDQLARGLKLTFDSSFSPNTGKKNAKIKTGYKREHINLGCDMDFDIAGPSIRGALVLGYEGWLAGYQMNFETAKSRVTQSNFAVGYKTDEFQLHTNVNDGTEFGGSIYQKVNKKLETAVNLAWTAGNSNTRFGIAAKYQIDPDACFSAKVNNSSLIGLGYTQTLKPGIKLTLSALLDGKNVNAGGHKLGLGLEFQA
SMILES,IC50 (VDAC1) [µM],"protection against 6-hydroxydopamine-induced decreased cell viability (SHSY5Y cells; 15 μM VBIT-12, 24 h, different 6-hydroxydopamine concentrations)",IC50 (SHSY5Y cells; 30 μM 6-hydroxydopamine) [µM],IC50 (SHSY5Y cells; 50 μM 6-hydroxydopamine) [µM],VDAC1 levels in dopaminergic neurons (anti-VDAC1 staining) (dopaminergic neurons),dopaminergic neurons in SNc (TH staining) (dopaminergic neurons)
"O=C(CC(CO)N1CCN(c2ccc(OC(F)(F)F)cc2)CC1)Nc1ccc(Cl)cc1 (racemic) [Formula 1, N-(4-chlorophenyl)-4-hydroxy-3-(4-(4-(trifluoromethoxy)phenyl)-piperazin-1-yl)butanamide]",1.9,–,–,–,–,–
O=C(O)CNC(=O)C1(Nc2ccccc2)CCN(Cc2cccc3ccccc23)CC1 [Formula 3],–,protected against the reduction of cell survival by all 6-hydroxydopamine concentration used,~1,~2,decreased,protected against neuronal loss
